Measured values taken from publication PMC8504577, “Evaluation of a Clinically Relevant Drug–Drug Interaction Between Rosuvastatin and Clopidogrel and the Risk of Hepatotoxicity” (Frontiers in Pharmacology, 2021).
Where two headings read alike, the source gives them in different places. Blank lines part the entries; values can stand above or below the compound they belong to.

What was measured:
rats = assay: Biochemical examination of liver function indices in rats; type: in vivo, Sprague-Dawley rats; conditions: rat plasma
Text: After the last sample in the plasma pharmacokinetic study, all rats were deeply anesthetized and exsanguinated by severing the abdominal aorta. Blood and liver samples were harvested. The plasma was used for the assay of alanine aminotransferase (ALT), aspartate aminotransferase (AST), total bilirubin (TBIL), unconjugated bilirubin (IBIL), and conjugated bilirubin (DBIL) by an automatic analyzer (Beckman Coulter, Brea, CA, United States).

[1] = test system: sodium taurocholate cotransporting polypeptide (NTCP); conditions: ref Elsby et al., 2016; cited from earlier work
[2] = Cytotoxicity (MTT, AST, LDH) in cryopreserved human hepatocytes; type: cell-based; conditions: human, cryopreserved primary human hepatocytes; 96 h incubation
Procedure: Cytotoxicity was determined with MTT assay in cryopreserved human hepatocytes. Thawing and plating of cryopreserved hepatocytes were carried out according to the manufacturer’s protocol. […] 11 μL of 5 mg/ml MTT was added to each well of the plate, and then the plate was incubated at 37°C for 3–4 h. After the medium was aspirated, 150 μL of DMSO was added to dissolve the formazan. The absorbance at 570 nm was measured and corrected for background absorption at 690 nm using a SpectraMax® i3 plate reader (Molecular Devices, Silicon Valley, CA, United States). AST and LDH levels in the medium of parallel processed plates were measured by commercially available assay kits. […] All experiments were performed in triplicate.

[3] = Hepatobiliary transport study in rats; type: in vivo, Sprague-Dawley rats; conditions: for Tmax / Kp / Cmax / AUC(0-t): Sprague-Dawley, rat; for Tmax / Cmax / AUC(0-t): 5 mg/kg; for Kp: liver/plasma, read-out: Liver AUC0-5min/Plasma AUC0-5min; for AUC(0-t): read-out: Plasma AUC0-5min (converted); for CLint,bile / CLuptake,liver: integration plot method
Procedure: For the hepatobiliary transport study, 24 rats were randomly assigned into eight groups (n = 3, each group, groups V to XII) and they received a p.o. dose as oral gavage of CP (27 mg/kg) for 20 days. The remaining 24 rats were also randomly assigned into eight groups (n = 3, each group, groups XIII to XX) and received the same volume of vehicle control for 20 days. […] On day 21, rats were anesthetized and incised along the abdominal midline, and bile duct intubation was performed prior to drug administration. […] Rats were euthanized at 0.25, 0.47, 0.67, 1, 1.5, 2, 2.5, and 5 min post dose. Arterial blood, bile, and liver samples were collected.
Supplementary Table 2. Pharmacokinetic parameters of hepatobiliary transport study in rats. (n= 3) RSV CLuptake,liver and CLint,bile were calculated by integration plot methods.^[1, 2]

[4] = cited from earlier work; for I1, peak plasma concentration at steady state: ref Itkonen et al. (2015)
BCRP = target: T1, BCRP (Homo sapiens, UniProt Q9UNQ0); assay: Inhibition of RSV transport in BCRP-expressing membrane vesicles; type: biochemical; set-up: purchased GenoMembrane Co., Ltd. (Yokohama, Japan) GM0008; host or cells: Sf9 insect cells
T1 sequence (Q9UNQ0 1-655): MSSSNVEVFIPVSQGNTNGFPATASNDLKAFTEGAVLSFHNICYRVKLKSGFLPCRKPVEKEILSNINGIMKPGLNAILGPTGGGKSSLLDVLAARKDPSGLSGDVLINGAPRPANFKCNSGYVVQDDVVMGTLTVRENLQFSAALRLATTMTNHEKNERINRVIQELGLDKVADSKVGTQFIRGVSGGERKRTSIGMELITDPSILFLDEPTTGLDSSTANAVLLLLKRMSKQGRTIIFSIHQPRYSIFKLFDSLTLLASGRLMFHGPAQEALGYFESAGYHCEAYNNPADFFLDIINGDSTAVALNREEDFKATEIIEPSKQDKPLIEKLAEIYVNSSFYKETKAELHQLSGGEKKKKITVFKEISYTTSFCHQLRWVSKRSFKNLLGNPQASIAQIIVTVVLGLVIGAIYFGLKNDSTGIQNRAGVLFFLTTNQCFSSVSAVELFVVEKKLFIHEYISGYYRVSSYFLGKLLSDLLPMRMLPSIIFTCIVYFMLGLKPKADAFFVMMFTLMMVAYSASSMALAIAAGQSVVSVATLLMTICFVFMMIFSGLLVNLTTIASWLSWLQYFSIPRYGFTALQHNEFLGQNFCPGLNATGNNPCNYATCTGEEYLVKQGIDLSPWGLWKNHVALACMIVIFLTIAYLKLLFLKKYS
Procedure: The vesicular transport activity was determined by the 96-well rapid filtration method in BCRP- and MRP2-expressing membrane vesicles. […] Meanwhile, 5 μL RSV (final concentration, 1 μM) and 20 μL reagent C2 were pre-incubated at 37°C for 5 min. Then, the transport was initiated by mixing them in a 50 μL reaction system and incubated for the designated time at 37°C. The transport was terminated by adding 200 μL of cold buffer B2 at 4°C. Then, the mixture was filtered using a 96-well filter plate. After washing the vesicles five times with 200 μL of cold buffer B2 at 4°C, the vesicles were lysed with 50 μL of 80% […] twice and then centrifuged at 2000 rpm/min for 2 min. Lysates were collected and then centrifuged at 12,000 rpm/min for 5 min. The supernatants were injected onto the LC-MS/MS. The same procedures were applied to AMP-containing samples except that reagent D2 was used instead of reagent C2. All experiments were performed in quadruplicate.
Statistical analysis was performed using SPSS ver. 22.0 (IBM, Chicago, IL, United States).

[5] = Group II single i.v. dose RSV + vehicle control
[6] = Group IV single p.o. dose RSV + vehicle control
[7] = plasma, iv, i.v. RSV 5 mg/kg, with DDI (multiple p.o. CP 27 mg/kg)
[8] = plasma, iv, i.v. RSV 5 mg/kg, without DDI
[9] = i.v. RSV 5 mg/kg, with DDI (multiple p.o. CP 27 mg/kg)
[10] = in 5 days after p.o. administration, ref Sanofi-Aventis, 2011

SMILES: CC(C)c1nc(N(C)S(C)(=O)=O)nc(-c2ccc(F)cc2)c1/C=C/[C@@H](O)C[C@@H](O)CC(=O)O [RSV, rosuvastatin]
ALT (rats; [5]): 54.00 ± 14.17 U/L
AST (rats; [5]): 210.50 ± 36.59 U/L
DBIL (rats; [5]): 1.12 ± 0.11 µmol/L
IBIL (rats; [5]): 0.88 ± 0.18 µmol/L
TBIL (rats; [5]): 2.00 ± 0.22 µmol/L
ALT (rats; [6]): 52.00 ± 6.68 U/L
AST (rats; [6]): 212.50 ± 33.72 U/L
DBIL (rats; [6]): 0.58 ± 0.33 µmol/L
IBIL (rats; [6]): 0.57 ± 0.36 µmol/L
TBIL (rats; [6]): 1.13 ± 0.42 µmol/L
Individual contribution of NTCP to hepatic uptake [1]: 0.21
IC50 at 96 h [2]: 14.8 µM
Tmax ([3]; liver, iv, i.v. RSV 5 mg/kg, with DDI (multiple p.o. CP 27 mg/kg), read-out: Liver Tmax (converted)): 1.72 min
Tmax ([3]; liver, iv, i.v. RSV 5 mg/kg, without DDI, read-out: Liver Tmax (converted)): 2 min
Kp ([3]; intravenous, i.v. RSV 5 mg/kg, with DDI (multiple p.o. CP 27 mg/kg)): 1.38 ± 0.13
Kp ([3]; iv, i.v. RSV 5 mg/kg, without DDI): 1.72 ± 0.18
Cmax [3, 7]: 56 ± 9.15 µg/mL
AUC(0-t) [3, 7]: 1710 ng·h/mL
Tmax ([3]; plasma, iv, i.v. RSV 5 mg/kg, with DDI (multiple p.o. CP 27 mg/kg), read-out: Plasma Tmax (converted)): 0.36 min
Cmax [3, 8]: 62.1 ± 24.2 µg/mL
AUC(0-t) [3, 8]: 1190 ng·h/mL
Tmax ([3]; plasma, iv, i.v. RSV 5 mg/kg, without DDI, read-out: Plasma Tmax (converted)): 0.31 min
Bile0-5min (with DDI/without DDI)% ([3]; i.v. RSV 5 mg/kg): 84.95%
Bile0-5min/Liver AUC0-5min (with DDI/without DDI)% ([3]; i.v. RSV 5 mg/kg): 73.81%
CLint,bile (with DDI/without DDI)% ([3]; i.v. RSV 5 mg/kg): 60.81%
CLuptake,liver (with DDI/without DDI)% ([3]; i.v. RSV 5 mg/kg): 47.62%
Liver AUC0-5min (with DDI/without DDI)% ([3]; i.v. RSV 5 mg/kg): 115.37%
Liver AUC0-5min/Plasma AUC0-5min (with DDI/without DDI)% ([3]; i.v. RSV 5 mg/kg): 80.23%
Liver Cmax (with DDI/without DDI)% ([3]; i.v. RSV 5 mg/kg): 94.79%
Liver Tmax (with DDI/without DDI)% ([3]; i.v. RSV 5 mg/kg): 86.00%
Plasma AUC0-5min (with DDI/without DDI)% ([3]; i.v. RSV 5 mg/kg): 143.73%
Plasma Cmax (with DDI/without DDI)% ([3]; i.v. RSV 5 mg/kg): 90.18%
Plasma Tmax (with DDI/without DDI)% ([3]; i.v. RSV 5 mg/kg): 116.13%
Bile0-5min [3, 9]: 218.80 ± 138.59 µg
Bile0-5min/Liver AUC0-5min [3, 9]: 1.55 ± 0.98 g/min
Liver AUC0-5min [3, 9]: 141196.71 ± 13631.53 ng·min/g
Liver Cmax [3, 9]: 36840.00 ± 1304.15 ng/g
CLint,bile [3, 9]: 1.80 ± 1.10 g/min
CLuptake,liver [3, 9]: 0.40 ± 0.15 mL/min/g
Bile0-5min ([3]; i.v. RSV 5 mg/kg, without DDI): 257.57 ± 104.42 µg
Bile0-5min/Liver AUC0-5min ([3]; i.v. RSV 5 mg/kg, without DDI): 2.10 ± 0.85 g/min
Liver AUC0-5min ([3]; i.v. RSV 5 mg/kg, without DDI): 122384.16 ± 13075.60 ng·min/g
Liver Cmax ([3]; i.v. RSV 5 mg/kg, without DDI): 38866.67 ± 3503.67 ng/g
CLint,bile ([3]; i.v. RSV 5 mg/kg, without DDI): 2.96 ± 1.50 g/min
CLuptake,liver ([3]; i.v. RSV 5 mg/kg, without DDI): 0.84 ± 0.45 mL/min/g
Decrease of RSV CLint,bile in presence of CP ([3]; i.v. RSV, not significant): 39.19%
Decrease of RSV CLuptake,liver in presence of CP ([3]; i.v. RSV, not significant): 52.38%
Decrease of RSV bile0–5min/liver AUC0–5min in presence of CP ([3]; i.v. RSV, not significant): 26.19%
Decrease of RSV liver AUC0–5min/plasma AUC0–5min in presence of CP ([3]; i.v. RSV, not significant): 19.77%

IC50 (BCRP; IC50 BCRP-mediated RSV transport, 1 μM RSV, membrane vesicles): ~0.001 µM
inhibition at 0.001 μM (BCRP; human): 56.9%
SMILES: COC(=O)[C@H](c1ccccc1Cl)N1CCc2sccc2C1 [CP, clopidogrel]
I1, peak plasma concentration at steady state ([4]; 75 mg CP): 0.0010 [Itkonen et al. (2015)] μM
I1, peak plasma concentration at steady state ([4]; 300 mg CP): 0.0089 [Itkonen et al. (2015)] μM
Absorbed CP converted into inactive carboxylic acid metabolites (CPC) by CES1 in the liver ([4]; at least, ref Jiang et al., 2015): 85–90%
Excreted as inactive metabolites via feces [4, 10]: ~46%
Excreted as inactive metabolites via urine [4, 10]: ~50%
CP undergoing two-step oxidization by CYP enzymes to active metabolite ([4]; ref Jiang et al., 2015): About 2%
Elimination half-life ([4]; ref Sanofi-Aventis, 2011): 360 min
